Results from PubChem BioAssay (NCI).
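Following 48 hours of exposure in 96-well plates, responses at five concentrations were used to interpolate endpoints linearly. Here, GI50 denotes the concentration required for 50% inhibition of growth. TGI: total growth inhibition.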

Key:
Assay in all cases: DTP human tumour cell line panel, 48 h
[1] = tested on: 786-0 renal
[2] = tested on: A498 renal
[3] = tested on: A549 NSCLC
[4] = tested on: ACHN renal
[5] = tested on: BT-549 breast
[6] = tested on: CAKI-1 renal
[7] = tested on: CCRF-CEM leukemia
[8] = tested on: COLO 205 colon
[9] = tested on: DU-145 prostate
[10] = tested on: HCC-2998 colon
[11] = tested on: HCT-116 colon
[12] = tested on: HCT-15 colon
[13] = tested on: HL-60(TB) leukemia
[14] = tested on: HOP-62 NSCLC
[15] = tested on: HOP-92 NSCLC
[16] = tested on: HS 578T breast
[17] = tested on: HT29 colon
[18] = tested on: IGROV1 ovarian
[19] = tested on: K-562 leukemia
[20] = tested on: KM12 colon
[21] = tested on: LOX IMVI melanoma
[22] = tested on: M14 melanoma
[23] = tested on: MALME-3M melanoma
[24] = tested on: MCF7 breast
[25] = tested on: MDA-MB-231 breast
[26] = tested on: MDA-MB-435
[27] = tested on: MOLT-4 leukemia
[28] = tested on: NCI-H226 lung
[29] = tested on: NCI-H23 lung
[30] = tested on: NCI-H460 lung
[31] = tested on: NCI-H522 lung
[32] = tested on: NCI/ADR-RES ovarian
[33] = tested on: OVCAR-3 ovarian
[34] = tested on: OVCAR-4 ovarian
[35] = tested on: OVCAR-5 ovarian
[36] = tested on: OVCAR-8 ovarian
[37] = tested on: PC-3 prostate
[38] = tested on: RPMI-8226 leukemia
[39] = tested on: RXF 393 renal
[40] = tested on: SF-268 CNS
[41] = tested on: SF-295 CNS
[42] = tested on: SF-539 CNS
[43] = tested on: SK-MEL-2 melanoma
[44] = tested on: SK-MEL-28 melanoma
[45] = tested on: SK-MEL-5 melanoma
[46] = tested on: SK-OV-3 ovarian
[47] = tested on: SN12C renal
[48] = tested on: SNB-19 CNS
[49] = tested on: SNB-75 CNS
[50] = tested on: SR leukemia
[51] = tested on: SW-620 colon
[52] = tested on: T-47D breast
[53] = tested on: TK-10 renal
[54] = tested on: U251 CNS
[55] = tested on: UACC-257 melanoma
[56] = tested on: UACC-62 melanoma
[57] = tested on: UO-31 renal
[58] = tested on: EKVX NSCLC

Cn1ncnc1C1c2n[nH]c(=O)c3cc(F)cc(c23)NC1c1ccc(F)cc1 (centres undefined)
GI50 [1]: > 100 µM
TGI [1]: > 100 µM
GI50 [2]: 5 µM
TGI [2]: > 94.3 µM
GI50 [3]: 7.9 µM
TGI [3]: > 100 µM
GI50 [4]: 29.4 µM
TGI [4]: > 100 µM
GI50 [5]: > 69.9 µM
TGI [5]: > 100 µM
GI50 [6]: 9.37 µM
TGI [6]: > 100 µM
GI50 [7]: 3.13 µM
TGI [7]: > 100 µM
GI50 [8]: > 100 µM
TGI [8]: > 100 µM
GI50 [9]: 4.14 µM
TGI [9]: > 100 µM
GI50 [10]: > 100 µM
TGI [10]: > 100 µM
GI50 [11]: 25.8 µM
TGI [11]: > 100 µM
GI50 [12]: > 100 µM
TGI [12]: > 100 µM
GI50 [13]: 4.86 µM
TGI [13]: > 100 µM
GI50 [14]: 7.79 µM
TGI [14]: > 100 µM
GI50 [15]: 39.9 µM
TGI [15]: > 100 µM
GI50 [16]: > 100 µM
TGI [16]: > 100 µM
GI50 [17]: > 100 µM
TGI [17]: > 100 µM
GI50 [18]: > 100 µM
TGI [18]: > 100 µM
GI50 [19]: > 100 µM
TGI [19]: > 100 µM
GI50 [20]: > 100 µM
TGI [20]: > 100 µM
GI50 [21]: 6.63 µM
TGI [21]: > 100 µM
GI50 [22]: 3.52 µM
TGI [22]: > 100 µM
GI50 [23]: > 100 µM
TGI [23]: > 100 µM
GI50 [24]: 1.57 µM
TGI [24]: > 100 µM
GI50 [25]: > 100 µM
TGI [25]: > 100 µM
GI50 [26]: > 100 µM
TGI [26]: > 100 µM
GI50 [27]: 3.25 µM
TGI [27]: > 100 µM
GI50 [28]: > 100 µM
TGI [28]: > 100 µM
TGI [29]: > 100 µM
GI50 [30]: 0.193 µM
TGI [30]: > 100 µM
GI50 [31]: > 100 µM
TGI [31]: > 100 µM
GI50 [32]: > 100 µM
TGI [32]: > 100 µM
GI50 [33]: > 100 µM
TGI [33]: > 100 µM
GI50 [34]: 12.7 µM
TGI [34]: > 100 µM
GI50 [35]: > 100 µM
TGI [35]: > 100 µM
GI50 [36]: > 100 µM
TGI [36]: > 100 µM
GI50 [37]: > 100 µM
TGI [37]: > 100 µM
GI50 [38]: > 100 µM
TGI [38]: > 100 µM
GI50 [39]: 22.2 µM
TGI [39]: > 100 µM
GI50 [40]: 3.3 µM
TGI [40]: > 100 µM
GI50 [41]: 1.01 µM
TGI [41]: > 100 µM
GI50 [42]: 5.39 µM
TGI [42]: > 100 µM
GI50 [43]: > 100 µM
TGI [43]: > 100 µM
GI50 [44]: > 100 µM
TGI [44]: > 100 µM
GI50 [45]: > 100 µM
TGI [45]: > 100 µM
GI50 [46]: > 42.7 µM
TGI [46]: > 100 µM
GI50 [47]: 4.43 µM
TGI [47]: > 100 µM
GI50 [48]: 11.2 µM
TGI [48]: > 100 µM
GI50 [49]: 9.8 µM
TGI [49]: > 100 µM
GI50 [50]: < 0.0265 µM
TGI [50]: > 62.5 µM
GI50 [51]: > 41 µM
TGI [51]: > 100 µM
GI50 [52]: > 100 µM
TGI [52]: > 100 µM
GI50 [53]: > 34.2 µM
TGI [53]: > 100 µM
GI50 [54]: 2.18 µM
TGI [54]: > 100 µM
GI50 [55]: > 100 µM
TGI [55]: > 100 µM
GI50 [56]: > 100 µM
TGI [56]: > 100 µM
GI50 [57]: 11.9 µM
TGI [57]: > 100 µM

COc1cc2c(cc1OCCCCN1CCN(CCCCOc3cc4c(cc3OC)C(=O)N3CCC[C@H]3C=N4)CC1)N=C[C@@H]1CCCN1C2=O
TGI [1]: 41.1 µM
TGI [2]: 0.0692 µM
TGI [3]: > 100 µM
TGI [4]: > 100 µM
TGI [5]: 0.843 µM
TGI [6]: 0.182 µM
GI50 [7]: < 0.01 µM
TGI [7]: 41.6 µM
TGI [8]: 0.0354 µM
TGI [9]: > 100 µM
TGI [58]: 7.85 µM
TGI [11]: 22.5 µM
TGI [14]: > 42 µM
TGI [15]: 0.255 µM
TGI [16]: > 100 µM
TGI [17]: 0.656 µM
TGI [19]: > 11.3 µM
TGI [20]: 0.204 µM
GI50 [21]: 0.0267 µM
TGI [21]: > 100 µM
TGI [22]: 0.0936 µM
TGI [24]: 45 µM
TGI [25]: 0.182 µM
TGI [26]: 0.165 µM
TGI [28]: 0.0891 µM
TGI [29]: 0.0914 µM
TGI [30]: > 32 µM
TGI [31]: 1.49 µM
TGI [32]: 16.5 µM
TGI [33]: 0.0636 µM
TGI [34]: 12 µM
TGI [35]: 0.163 µM
TGI [36]: 18.6 µM
TGI [37]: 3.12 µM
TGI [38]: < 0.0241 µM
TGI [39]: 0.507 µM
TGI [40]: 16.5 µM
TGI [41]: 0.242 µM
TGI [42]: 0.0692 µM
TGI [43]: 0.175 µM
TGI [45]: 0.0476 µM
TGI [46]: > 100 µM
TGI [47]: 1.1 µM
TGI [50]: > 100 µM
TGI [51]: > 40 µM
TGI [52]: 3.53 µM
TGI [53]: 0.263 µM
TGI [54]: > 100 µM
TGI [55]: 0.676 µM
TGI [56]: 0.0347 µM
TGI [57]: > 100 µM
